Target: T1, growth hormone secretagogue receptor (Homo sapiens, UniProt Q92847)
T1 construct: expressed in transfected cells; host or cells: HEK 293 (EBNA) cells, membrane preparation
Assay: Saturation binding assay using T-MK0677 on transfected HEK 293 (EBNA) cell membranes
Experimental: Human Embryonic Kidney HEK 293 (EBNA) cells were grown in suspension and transfected according to the method previously described (Schlaeger and Christensen, Cytotechnology, 30, 71-83, 1999). The cells were centrifugated for 10 min at 500 rpm, washed once with PBS-0.7 mM EDTA/(4° C.) and resuspended in PBS-EDTA-PI (with Protease inhibitor cocktail), at 2 ml/g of cells. Cells were broken with Ultra Turax level green 3×15″ with 30″ breaks on ice. To remove debris the suspension was centrifugated in a Sorvall SS34 rotor for 20 min at 2,000 rpm. The supernatant was collected and centrifugated for 40 min at 20,000 rpm. The pellet was resuspended in PBS-EDTA. Receptor density was verified with saturation binding assay using T-MK 0677 to be 4.9 pmol/mg protein.
The membrane was resuspended in Binding buffer (25 mM Hepes, pH 7.4, 25 mM MgCl2, 1 mM CaCl2, 0.1% BSA, 0.03% Bacitracine (protease inhibitor)) to 0.1 to 2 μg/well. […]
A filter plate (Packard GF/B unifilter plate) was treated with 50 μL/well 0.5% polyethyleneimine (PEI) in PBS for 15 min. […] Then 50 μL of Microscint 0 were added per well and the T decay counted in a topcount from Packard Instruments.

T1 sequence (Q92847 whole entry): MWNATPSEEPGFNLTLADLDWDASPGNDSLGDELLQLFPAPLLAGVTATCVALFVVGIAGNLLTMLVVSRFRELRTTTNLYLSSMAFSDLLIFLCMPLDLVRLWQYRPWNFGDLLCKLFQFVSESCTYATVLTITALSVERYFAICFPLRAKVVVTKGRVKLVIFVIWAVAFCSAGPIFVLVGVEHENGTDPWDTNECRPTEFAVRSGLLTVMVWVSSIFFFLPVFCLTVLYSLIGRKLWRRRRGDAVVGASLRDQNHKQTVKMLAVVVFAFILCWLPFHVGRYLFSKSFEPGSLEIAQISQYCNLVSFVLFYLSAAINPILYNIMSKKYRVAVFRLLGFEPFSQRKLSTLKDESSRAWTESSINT

For “tris-tritiated-2-amino-N-[(1R)-2-[1,2-dihydro-1-(methylsulfonyl)spiro[3H-indole-3,4′-piperidin]-1′-yl]-2-oxo-1-[(phenylmethoxy)methyl]ethyl]-2-methyl-, monomethanesulfonate [T-MK 0677]”, the Receptor density was 4.9 pmol/mg protein.

— patent US20060204436A1, “Tritiated growth hormone secretagogue mk-0677” (priority 2003, published 2006)
